Test results published in ChEMBL document CHEMBL3124776, “Discovery of novel urea derivatives as dual-target hypoglycemic agents that activate glucokinase and PPARγ” (Eur J Med Chem, 2014).
Calls of active or inactive are those of the source. The rule behind the calls is not given here.

Legend:
[1] = biological target: T1, Peroxisome proliferator-activated receptor gamma (Homo sapiens) (UniProt P37231); test: Activation of PPAR-gamma (unknown origin) transfected in human U2OS cells assessed as increase in transcriptional activity at 10^-6 M after 24 hrs by luciferase reporter gene assay relative to rosiglitazone; type: cell-based
T1 sequence (whole entry): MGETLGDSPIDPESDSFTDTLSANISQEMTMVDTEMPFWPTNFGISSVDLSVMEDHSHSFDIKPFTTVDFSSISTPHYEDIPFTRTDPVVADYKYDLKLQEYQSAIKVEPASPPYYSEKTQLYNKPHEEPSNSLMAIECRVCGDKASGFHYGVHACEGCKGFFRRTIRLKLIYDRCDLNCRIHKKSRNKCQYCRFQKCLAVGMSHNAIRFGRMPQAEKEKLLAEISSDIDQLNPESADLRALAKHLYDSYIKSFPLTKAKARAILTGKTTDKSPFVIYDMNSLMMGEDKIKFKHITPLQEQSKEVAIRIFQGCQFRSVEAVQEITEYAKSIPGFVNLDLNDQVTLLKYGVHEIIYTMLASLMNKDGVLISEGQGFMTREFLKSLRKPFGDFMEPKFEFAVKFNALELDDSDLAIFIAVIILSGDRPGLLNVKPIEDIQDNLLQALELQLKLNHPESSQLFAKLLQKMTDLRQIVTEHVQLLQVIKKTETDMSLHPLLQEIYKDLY

Mus musculus [2] = test: Hypoglycemic activity in ICR mouse assessed as decrease in blood glucose level at 50 mg/kg, po after 6 hrs by OGTT relative to control; type: functional; design: scale not given: the % may be the effect or the level left
Mus musculus [3] = test: Hypoglycemic activity in ICR mouse assessed as decrease in blood glucose level at 50 mg/kg, po after 4 hrs by OGTT relative to control; type: functional; design: scale not given: the % may be the effect or the level left
[4] = biological target: T1, Peroxisome proliferator-activated receptor gamma (Homo sapiens); test: Activation of PPAR-gamma (unknown origin) transfected in human U2OS cells assessed as increase in transcriptional activity at 10^-6 M after 24 hrs by luciferase reporter gene assay; type: cell-based
Mus musculus [5] = test: Hypoglycemic activity in ICR mouse assessed as reduction of blood glucose AUC (0 to 120 mins) at 50 mg/kg, po qd administered for 3 days followed by glucose challenge for 40 mins on day 3 post last dose by OGTT relative to control; type: functional; design: scale not given: the % may be the effect or the level left
[6] = Cmax in ICR mouse at 50 mg/kg, po; type: ADME, organism-based; design: dose 50 mg/kg, route oral; details: in vivo
[7] = AUC (0 to t) in ICR mouse at 50 mg/kg, po; type: ADME, organism-based; design: dose 50 mg/kg, route oral; details: plasma
[8] = Tmax in ICR mouse at 50 mg/kg, po; type: ADME, organism-based; design: dose 50 mg/kg, route oral; details: in vivo
Mus musculus [9] = test: Hypoglycemic activity in ICR mouse assessed as decrease in blood glucose level at 50 mg/kg, po after 2 hrs by OGTT relative to control; type: functional
[10] = MRT (0 to t) in ICR mouse at 50 mg/kg, po; type: ADME, organism-based; design: dose 50 mg/kg, route oral; details: in vivo
Homo sapiens = organism: Homo sapiens; test: Selectivity for PPAR-gamma (unknown origin) over PPAR-alpha (unknown origin)

Which Activity [1] does the source give for CCCCCN(C(=O)Nc1nc2ccc(C)cc2s1)c1ccc(OC(C)(C)C(=O)O)cc1 here?
The Activity was over 38.8%.

What about the Activity (Mus musculus [2]) of the same compound?
Its Activity is 20%.

What about the Activity (Mus musculus [3]) of the same compound?
The Activity was 22.6%.

With CCOC(=O)C(C)(C)Oc1ccc(N(Cc2ccco2)C(=O)Nc2nccs2)cc1 as the compound, how does the Activity [4] read?
Its Activity is “Active”.

With CC(C)CCN(C(=O)Nc1nc2ccccc2s1)c1ccc(OC(C)(C)C(=O)O)cc1 as the compound, how does the Activity [4] read?
Its Activity is “Active”.

For CC(C)(Oc1ccc(N(Cc2cccc(F)c2)C(=O)Nc2nc3ccccc3s2)cc1)C(=O)O, which Activity [4] is on record?
The Activity was “Active”.

Which results are given for CCCCCN(C(=O)Nc1nccs1)c1ccc(OC(C)(C)C(=O)OCC)cc1?
Activity [1]: > 38.8%; Activity (Mus musculus [5]): 10%

With CCCCCN(C(=O)Nc1nccs1)c1ccc(OC(C)(C)C(=O)O)cc1 as the compound, how does the Activity [1] read?
Its Activity is over 38.8%.

And the Cmax [6]?
Its Cmax is 77.8 µg/mL.

And the AUC(0-t) [7]?
Its AUC(0-t) is 98000 ng·h/mL.

And the Tmax [8]?
The Tmax was 30 min.

And the Activity (Mus musculus [9])?
Its Activity is “Active”.

What about the Activity (Mus musculus [5]) of the same compound?
Its Activity is 34.6%.

What about the Activity (Mus musculus [3]) of the same compound?
The Activity was “Active”.

And the MRT last [10]?
The MRT last was 67.8 min.

With CCCN(C(=O)Nc1nc2ccc(C)cc2s1)c1ccc(OC(C)(C)C(=O)O)cc1 as the compound, how does the Activity [4] read?
Its Activity is “Active”.

With CC(C)(Oc1ccc(N(CC2CCCCC2)C(=O)Nc2nc3ccccc3s2)cc1)C(=O)O as the compound, how does the Activity [1] read?
Its Activity is over 38.8%.

For C=CCN(C(=O)Nc1nccs1)c1ccc(OC(C)(C)C(=O)OCC)cc1, which Activity [1] is on record?
Its Activity is over 38.8%.

For CCOC(=O)C(C)(C)Oc1ccc(N(CC=C(C)C)C(=O)Nc2nccs2)cc1, which Activity [4] is on record?
The Activity was “Active”.

For CC(C)Oc1cc(OCCc2ccsc2)cc(C(=O)Nc2ccc(C(=O)O)cn2)c1, which Activity (Mus musculus [2]) is on record?
The Activity was 24.4%.

And the Activity (Mus musculus [9])?
The Activity was 29.7%.

And the Activity (Mus musculus [3])?
The Activity was 41.8%.

For CC(C)(Oc1ccc(CCN(CC2CCCCC2)C(=O)Nc2ccc(F)cc2F)cc1)C(=O)O, which Selectivity ratio (Homo sapiens) is on record?
Its Selectivity ratio is 10.
